# Where “and” joins values, the source holds several entries; their conditions need not be identical. Identical values can stand only once. Like-named read-outs stand apart in the source and are kept apart here.
# Key:
# [1] = test system: S. aureus ATCC 25923 biofilms; test: Anti-biofilm viability assay with redox dye, pre- and post-exposure, S. aureus ATCC 25923 biofilms; format: cell-based, Staphylococcus aureus; conditions: for inhibition at 400 µM: ATCC25923; for % inhibition, Post-biofilm formation: at 400 μM, existing biofilms
# [2] = test system: S. epidermidis ATCC 35984; test: Anti-biofilm activity against S. epidermidis ATCC 35984; format: cell-based, Staphylococcus epidermidis; conditions: tested at IC50 conc. measured against S. aureus ATCC 25923
# Experimental: (§1) Four of the compounds were also tested against gram-negative E. coli biofilms as well as other Staphylococcal strains, at the corresponding IC50 values measured against S. aureus ATCC 25923 (Table 4). […] Nonetheless, all the compounds presented below were found active against S. epidermidis (ATCC 12228 and ATCC 35984) strains (Table 3).
# [3] = test system: S. epidermidis ATCC 12228; test: Anti-biofilm activity against S. epidermidis ATCC 12228; format: cell-based, Staphylococcus epidermidis; conditions: tested at IC50 conc. measured against S. aureus ATCC 25923
# Experimental: as §1
# [4] = test system: HL cells; test: Tolerability of mammalian cells, resazurin viability assay; format: cell-based, human; conditions: concentrations of up to 100 μM; 24 hours exposure
# Experimental: Viability values were measured in acute conditions (24 hours exposure) using the resazurin assay as in Karlsson et al, 2012 (Eur J Pharm Sci. 2012 Aug 30;47(1):190-205). […] The least tolerated molecule was 25, as only 23% (±5.9) of cells remained viable upon exposure to 100 μM. However, concentrations up to 30 μM caused no cytotoxicity (90.2% of viable cells, ±0.5).
# [5] = test system: single-cell bacteria; test: Antibacterial activity (MIC) against single-cell (planktonic) bacteria; format: cell-based; conditions: Staphylococcus aureus, in the absence of biofilms, strain not stated
# Text: We selected six of the active compounds in the post-exposure assays namely, compounds 20, 21, 22, 25, 31 and 32 for the follow-up studies. […] In this mode of the assay, the interaction of the compounds occurs initially with single-cell bacteria (that is, a planktonic solution) before biofilms are formed. Therefore, we tested additionally if the compounds could exert antibacterial activity against single-cell bacteria, in the absence of biofilms. Based solely on conventional MIC and MBC values, antibacterial activities against single-cell bacteria were also high for the derivatives. […] The antibacterial activity order 22>21>25>31>20>32 correlated very well with the measured activity in preventing biofilm formation.
# [6] = test system: E. coli XL1 blue; test: Anti-biofilm activity against E. coli XL1 blue biofilms; format: cell-based, Escherichia coli; conditions: tested at IC50 conc. measured against S. aureus ATCC 25923
# Experimental: as §1
# [7] = test system: S. aureus ATCC 25923 biofilms; test: Viable plate counts and Log Reduction of S. aureus ATCC 25923 biofilms; format: cell-based, Staphylococcus aureus; conditions: 400 μM, viable plate counts
# Experimental: The viability of S. aureus (ATCC 25923) biofilms left upon exposure to compounds 20, 21, 22 and 25 was determined using viable plate counts and calculating the Log Reduction (Log R) value. This procedure involves scrapping the biofilms off the substrate, disaggregating them by sonication and plating the resulting suspension in agar. The method is highly laborious but it is the gold standard for the quantification of anti-biofilm efficacy (Pitts et al. 2003). […] Of note, a log R value of 2 represents a reduction of 99% of the viable cells in the biofilms, and typically, a log R of 3 is considered a relevant indicator of the compound efficacy as an anti-biofilm agent.
# [8] = test system: S. aureus Newman; test: Anti-biofilm potency against S. aureus Newman biofilms; format: cell-based, Staphylococcus aureus
# Text: In fact, only 2-3 fold-higher concentrations of the compounds were needed to kill existing biofilms, in comparison to inhibiting bacterial colonization. […] Anti-biofilm potencies were all in the micromolar range and they were particularly significant for compound 22. […] The activity was also confirmed against S. aureus Newman strain. Potency values calculated for the S. aureus Newman (Table 3) were very similar to the values registered for S. aureus ATCC 25923.
# [9] = test system: S. aureus biofilm; conditions: Fallarero et al, 2013; cited from earlier work
# [10] = Staphylococcus aureus, post-exposure, S. aureus ATCC 25923, read-out: % Inhibition 400 μM POST
# [11] = Staphylococcus aureus, pre-exposure, S. aureus ATCC 25923, read-out: % Inhibition 400 μM PRE
# [12] = Staphylococcus aureus, ATCC25923, 50% inhibition of biofilm viability, S. aureus ATCC 25923, read-out: Potency, IC50 Prior-to-biofilm formation
# [13] = Staphylococcus aureus, ATCC25923, 50% inhibition of biofilm viability, S. aureus ATCC 25923, value in parentheses, read-out: Potency, IC50 Prior-to-biofilm formation
# [14] = Staphylococcus aureus, ATCC25923, 24 h, measured 24 hours after adding to existing biofilms, S. aureus ATCC 25923, read-out: Potency, IC50 Post-biofilm formation
# [15] = Staphylococcus aureus, ATCC25923, 24 h, measured 24 hours after adding to existing biofilms, S. aureus ATCC 25923, value in parentheses, read-out: Potency, IC50 Post-biofilm formation
# [16] = Staphylococcus aureus, S. aureus Newman, read-out: Potency, IC50 Post-biofilm formation
# [17] = Staphylococcus aureus, S. aureus Newman, read-out: Potency, IC50 Prior-to-biofilm formation
# [18] = Staphylococcus aureus, S. aureus Newman, value in parentheses, read-out: Potency, IC50 Post-biofilm formation
# [19] = Staphylococcus aureus, S. aureus Newman, value in parentheses, read-out: Potency, IC50 Prior-to-biofilm formation
Molecule,"inhibition at 400 µM [1, 10]","inhibition at 400 µM [1, 11]","IC50 [1, 12]","IC50 [1, 13]","IC50 [1, 14]","IC50 [1, 15]",MIC [5],"IC50 [8, 16]","IC50 [8, 17]","IC50 [8, 18]","IC50 [8, 19]",also measured
"CC(C)c1ccc2c(c1)CC[C@H]1[C@](C)(C(=O)N[C@H](C(=O)O)C(C)C)CCC[C@]21C [Compound 18, N-(Abiet-8,11,13-trien-18-oyl) L-valine]",99.2%,100%,–,–,–,–,–,–,–,–,–,–
"CC[C@H](NC(=O)[C@]1(C)CCC[C@]2(C)c3ccc(C(C)C)cc3CC[C@@H]12)C(=O)O [Compound 19, N-(abiet-8,11,13-trien-18-oyl) Ethyl-L-glycine]",98.9%,99.8%,–,–,–,–,–,–,–,–,–,–
"CC(C)C[C@H](NC(=O)[C@]1(C)CCC[C@]2(C)c3ccc(C(C)C)cc3CC[C@@H]12)C(=O)O [Compound 20, N-(Abiet-8,11,13-trien-18-oyl) L-leucine]",99.8%,100%,62.2 µM,25.7 µg/mL,121 µM,50.2 µg/mL,33.1 µg/mL,134 µM,51.8 µM,55.6 µg/mL,21.4 µg/mL,Inhibition percentage (±SD) Post-biofilm formation [2]: −12 (±6.0) %; Inhibition percentage (±SD) Prior-to-biofilm formation [2]: 53.4 (±4.9) %; Inhibition percentage (±SD) Post-biofilm formation [3]: 12.9 (±5.1) %; Inhibition percentage (±SD) Prior-to-biofilm formation [3]: 62.4 (±2.2) %; cytotoxicity in HL cells [4]: did not cause statistically significant cytotoxicity; Inhibition percentage (±SD) Post-biofilm formation [6]: 39.9 (±4.6) %; Inhibition percentage (±SD) Prior-to-biofilm formation [6]: 14.2 (±4.5) %; Log Reduction (average ±SD) [7]: 3.9 (±0.4)
"CC(C)c1ccc2c(c1)CC[C@H]1[C@](C)(C(=O)N[C@@H](Cc3ccccc3)C(=O)O)CCC[C@]21C [Compound 21, N-(Abiet-8,11,13-trien-18-oyl) L-phenylalanine]",99.6%,100%,35.5 µM,15.9 µg/mL,109 µM,48.7 µg/mL,22.4 µg/mL,83.7 µM,35.9 µM,37.5 µg/mL,16.1 µg/mL,Inhibition percentage (±SD) Post-biofilm formation [2]: 44.4 (±8.4) %; Inhibition percentage (±SD) Prior-to-biofilm formation [2]: 58.1 (±4.1) %; Inhibition percentage (±SD) Post-biofilm formation [3]: 46.9 (±9.9) %; Inhibition percentage (±SD) Prior-to-biofilm formation [3]: 57.3 (±4.6) %; cytotoxicity in HL cells [4]: did not cause statistically significant cytotoxicity; Inhibition percentage (±SD) Post-biofilm formation [6]: 30.4 (±6.1) %; Inhibition percentage (±SD) Prior-to-biofilm formation [6]: 7.4 (±2.7) %; Log Reduction (average ±SD) [7]: 4.3 (±0.2)
"CSCC[C@@H](NC(=O)[C@]1(C)CCC[C@]2(C)c3ccc(C(C)C)cc3CC[C@@H]12)C(=O)O [Compound 23, N-(Abiet-8,11,13-trien-18-oyl) D-methionine]",92.6%,102%,–,–,–,–,–,–,–,–,–,–
"CC(C)c1ccc2c(c1)CC[C@H]1[C@](C)(C(=O)N[C@H](Cc3ccc(O)cc3)C(=O)O)CCC[C@]21C [Compound 24, N-(Abiet-8,11,13-trien-18-oyl) D-tyrosine]",26.3%,102%,–,–,–,–,–,–,–,–,–,–
"CC(C)c1ccc2c(c1)CC[C@H]1[C@](C)(C(=O)N[C@H](Cc3ccccc3)C(=O)O)CCC[C@]21C [Compound 31, N-(Abiet-8,11,13-trien-18-oyl) D-phenylalanine]",102%,102%,37.4 µM,16.7 µg/mL,98.2 µM,44 µg/mL,31.3 µg/mL,110 µM,36.2 µM,49.4 µg/mL,16.2 µg/mL,–
"CC(C)c1ccc2c(c1)C(=O)C[C@H]1[C@](C)(C(=O)N[C@@H](CC3CCCCC3)C(=O)O)CCC[C@]21C [Compound 32, N-(7-Oxoabiet-8,11,13-trien-18-oyl) Cyclohexyl-L-alanine]",102%,102%,60.6 µM,28.3 µg/mL,145 µM,67.9 µg/mL,46.8 µg/mL,93.1 µM,63.5 µM,43.5 µg/mL,29.7 µg/mL,–
"CC1(C)S[C@@H]2[C@H](NC(=O)Cc3ccccc3)C(=O)N2[C@H]1C(=O)O [Penicillin G, reference compound]",–,–,–,–,–,–,–,–,–,–,–,"IC50 ([1]; 50% inhibition of biofilm viability, S. aureus ATCC 25923, read-out: Potency, IC50 Prior-to-biofilm formation): 0.13 µM; Potency, IC50 Prior-to-biofilm formation ([1]; 50% inhibition of biofilm viability, S. aureus ATCC 25923, value in parentheses): 0.048 µg/mL; % inhibition, Post-biofilm formation ([1]; S. aureus ATCC 25923): 57% inhibition at 400 μM; Log Reduction (average ±SD) [7]: 1.0 (±0.1); IC50 ([8]; S. aureus Newman, read-out: Potency, IC50 Prior-to-biofilm formation): 0.27 µM; Potency, IC50 Prior-to-biofilm formation ([8]; S. aureus Newman, value in parentheses): 0.090 µg/mL; % inhibition, Post-biofilm formation ([8]; at 400 μM, S. aureus Newman): 73% inhibition at 400 μM"
"CN[C@H](CC(C)C)C(=O)N[C@H]1C(=O)N[C@@H](CC(N)=O)C(=O)N[C@H]2C(=O)N[C@H]3C(=O)N[C@H](C(=O)N[C@H](C(=O)O)c4cc(O)cc(O)c4-c4cc3ccc4O)[C@H](O)c3ccc(c(Cl)c3)Oc3cc2cc(c3O[C@@H]2O[C@H](CO)[C@@H](O)[C@H](O)[C@H]2O[C@H]2C[C@](C)(N)[C@H](O)[C@H](C)O2)Oc2ccc(cc2Cl)[C@H]1O [Vancomycin, reference compound]",–,–,–,–,–,–,–,–,–,–,–,"IC50 ([1]; Staphylococcus aureus, ATCC25923, read-out: Potency, IC50 Prior-to-biofilm formation): 710 nM and 1.03 µg/mL; % inhibition, Post-biofilm formation ([1]; S. aureus ATCC 25923): 25% inhibition at 400 μM; inhibition at 400 µM ([8]; Staphylococcus aureus, NEWMAN, read-out: % inhibition, Post-biofilm formation): 37.9%; IC50 ([8]; Staphylococcus aureus, NEWMAN, read-out: Potency, IC50 Prior-to-biofilm formation): 1.3 µM and 1.88 µg/mL"
CC(C)c1ccc2c(c1)CC[C@H]1[C@](C)(C(=O)O)CCC[C@]21C [dehydroabietic acid],–,–,–,–,–,–,–,–,–,–,–,prevention of S. aureus biofilm formation [9]: low micromolar range
CC(C)c1ccc2c(c1)CC[C@H]1[C@](C)(CN)CCC[C@]21C [dehydroabietylamine],–,–,–,–,–,–,–,–,–,–,–,prevention of S. aureus biofilm formation [9]: low micromolar range
nordehydroabietylamine,–,–,–,–,–,–,–,–,–,–,–,prevention of S. aureus biofilm formation [9]: low micromolar range

# Reference: patent US20170247409A1, “ABIETANE-TYPE DITERPENOIDS” (UNIVERSITY OF HELSINKI, priority 2014, published 2017)
